Experimental data reported in US20120076781A1, “METHODS OF TREATING CANCERS WITH HER3 ANTISENSE OLIGONUCLEOTIDES” (ENZON PHARMACEUTICALS, INC., priority 2009, published 2012).
Marks after values point to notes of the source that are not given here. In the oligonucleotide strings, read from the 5' end, every base follows the letter of its sugar. An asterisk marks phosphorothioate; unmarked linkages are phosphodiester. Other units and linkages are bracketed, terminal groups are in braces. A string of capitals states the bases alone. l = locked nucleic acid (LNA); [5mC] = 5-methylcytosine; d = 2'-deoxy (DNA)

Legend:
Mouse HER3 mRNA = assay: HER3 mRNA knockdown in liver of nude mice bearing 15PC3 xenografts, qd x 5 (qRT-PCR); type: in vivo; details: i.v.
Experimental: (§1) To evaluate the knockdown efficacy of the HER3 oligomeric compounds in vivo, the female nude mice bearing 15PC3 xenografts developed by subcutaneous injection of 5×10^6 cells/mouse into the right axillary flank, were injected intravenously with the oligomers at various doses and injection schedules (i.e. single dose, qd, q3d, q4d). Scrambled oligomer SEQ ID NO: 236 served as a negative control. 24 hours after the last injection, the mice were euthanized and liver and tumor tissues were collected in RNAlater solution (Ambion). Total RNA was purified from the tissues and the levels of HER3 mRNA were determined by quantitative reverse transcription-real time PCR (qRT-PCR) using the QuantiTect Probe RT-PCR kit (Cat#: 204443; Qiagen). GAPDH mRNA served as an internal control.
(§2) 200 ng of total RNA was used in the PCR reaction. The data analyses were performed by using the ABI-7500 PCR Fast System included software.
(§3) Data in Table 5 are presented as % HER3 mRNA levels relative to saline treated controls in liver and tumor samples after i.v. dosing of animals on 5 consecutive days with oligonucleotides in the doses indicated.

human HER3 mRNA [1] = assay: HER3 mRNA knockdown in 15PC3 xenograft tumor in nude mice, qd x 5 (qRT-PCR); type: in vivo; details: i.v., relative to saline controls
Experimental: as §1, §2, §3

HER3 mRNA [2] = assay: HER3 mRNA knockdown in 15PC3 xenograft tumor, different dosing cycle; type: in vivo, human; details: every third day
Experimental: as §1
(§4) The knockdown efficacy of oligomers was evaluated in vivo in nude mice bearing xenograft tumors derived from 15PC3 cells or A549 cells (NSCLC) or N87 cells (gastric carcinoma) using a similar protocol to the one described above in Example 11. Oligomers were administered by injection every third day in 2-4 doses. Tissues were harvested 3 or 4 days after the last injection.
(§5) Data in Tables 6 and 7 are presented as % HER3 mRNA or HIF-1 alpha mRNA relative to saline treated controls in liver and tumor samples after i.v. dosing of animals with the indicated oligomers.

HIF-1 alpha mRNA = HIF-1 alpha mRNA in 15PC3 xenograft tumor, different dosing cycle; type: in vivo, human; details: every third day
Experimental: as §1, §4, §5

HER3 mRNA [3] = assay: HER3 mRNA knockdown in liver of xenograft-bearing nude mice, different dosing cycle; type: in vivo, mouse; details: for Liver HER3 mRNA relative to saline treated controls: 15PC3 xenograft mice, every third day
Experimental: as §1
as §4, with “Oligomers were administered by injection every third day in 2-4 doses.” left out
as §5

HER3 mRNA [4] = assay: HER3 mRNA knockdown in A549 (NSCLC) xenograft tumor; type: in vivo, human; details: 35 mg/kg, q4d x 3, i.v.
Experimental: as §1, §4, §5

human HER3 mRNA [5] = assay: Down-regulation of HER3 mRNA in transfected HUH-7 cells, real-time PCR; type: cell-based; details: 25 nM, HUH-7 cells (indicated by *)
Experimental: HUH7: The human hepatocarcinoma cell line was cultured in DMEM (Sigma)+10% fetal bovine serum (FBS)+2 mM Glutamax I+gentamicin (25 μg/ml)+1× Non Essential Amino Acids.
The cells were treated with oligonucleotides using the cationic liposome formulation LipofectAMINE 2000 (Gibco) as transfection vehicle. Cells were seeded in 6-well cell culture plates (NUNC) and treated when 80-90% confluent. Oligomer concentrations ranged from 1 nM to 25 nM final concentration. Formulation of oligomer-lipid complexes was carried out essentially as described by the manufacturer using serum-free OptiMEM (Gibco) and a final lipid concentration of 5 μg/mL LipofectAMINE 2000. […]
(§6) The sample content of human HER3, EGFR and HER2 mRNA was quantified using the human HER3, EGFR and HER2 ABI Prism Pre-Developed TaqMan Assay Reagents (Applied Biosystems cat. no. Hs00951444_ml (HER3), Hs00193306_ml (EGFR) and Hs00170433_ml (HER2) according to the manufacturer's instructions.
Glyceraldehyde-3-phosphate dehydrogenase (GAPDH) mRNA quantity was used as an endogenous control for normalizing any variance in sample preparation. The sample content of human GAPDH mRNA was quantified using the human GAPDH ABI Prism Pre-Developed TaqMan Assay Reagent (Applied Biosystems cat. no. 4310884E) according to the manufacturer's instructions. […]

human EGFR mRNA = assay: Down-regulation of EGFR mRNA in transfected 15PC3 cells, real-time PCR; type: cell-based; details: 25 nM
Experimental: (§7) 15PC3: The human prostate cancer cell line 15PC3 was cultured in DMEM (Sigma)+10% fetal bovine serum (FBS)+2 mM Glutamax I+gentamicin (25 μg/ml).
(§8) The cells were treated with oligonucleotides using the cationic liposome formulation LipofectAMINE 2000 (Gibco) as transfection vehicle. Cells were seeded in 6-well cell culture plates (NUNC) and treated when 80-90% confluent. Oligomer concentrations ranged from 1 nM to 25 nM final concentration. Formulation of oligomer-lipid complexes was carried out essentially as described by the manufacturer using serum-free OptiMEM (Gibco) and a final lipid concentration of 5 μg/mL LipofectAMINE 2000. Cells were incubated at 37° C. for 4 hours and treatment was stopped by removal of oligomer-containing culture medium. Cells were washed and serum-containing medium was added. After oligomer treatment, cells were allowed to recover for 20 hours before they were harvested for RNA analysis.
(§9) Total RNA was extracted from cells transfected as described above and using the Qiagen RNeasy kit (Qiagen cat. no. 74104) according to the manufacturer's instructions. First strand synthesis was performed using Reverse Transcriptase reagents from Ambion according to the manufacturer's instructions.
(§10) For each sample 0.5 μg total RNA was adjusted to (10.8 μl) with RNase free H2O and mixed with 2 μl random decamers (50 μM) and 4 μl dNTP mix (2.5 mM each dNTP) and heated to 70° C. for 3 min after which the samples were rapidly cooled on ice. After cooling the samples on ice, 2 μl 10× Buffer RT, 1 μl MMLV Reverse Transcriptase (100 U/μl) and 0.25 μl RNase inhibitor (10 U/μl) was added to each sample, followed by incubation at 42° C. for 60 min, heat inactivation of the enzyme at 95° C. for 10 min, and then cooling the sample to 4° C.
as §6
(§11) Glyceraldehyde-3-phosphate dehydrogenase (GAPDH) mRNA quantity was used as an endogenous control for normalizing any variance in sample preparation. The sample content of human GAPDH mRNA was quantified using the human GAPDH ABI Prism Pre-Developed TaqMan Assay Reagent (Applied Biosystems cat. no. 4310884E) according to the manufacturer's instructions.
(§12) The cDNA from the first strand synthesis performed as described in Example 5 was diluted 2-20 times, and analyzed by real time quantitative PCR using Taqman 7500 FAST or 7900 FAST from Applied Biosystems. The primers and probe were mixed with 2× Taqman Fast Universal PCR master mix (2×) (Applied Biosystems Cat. #4364103) and added to 4 μl cDNA to a final volume of 10 μl. Each sample was analysed in duplicate. Assaying 2-fold dilutions of a cDNA that had been prepared on material purified from a cell line expressing the RNA of interest generated standard curves for the assays. Sterile H2O was used instead of cDNA for the no-template control. PCR program: 95° C. for 30 seconds, followed by 40 cycles of 95° C., 3 seconds, 60° C., 20-30 seconds. Relative quantities of target mRNA sequence were determined from the calculated Threshold cycle using the Applied Biosystems Fast System SDS Software Version 1.3.1.21. or SDS Software Version 2.3.
(§13) Oligonucleotides presented in Table 4 were evaluated for their potential to down-regulate HER3, EGFR and HER2 mRNA at concentrations of 1, 5 and 25 nM in 15PC3 cells (or HUH-7 as indicated by *) (see FIGS. 2, 3, 4 and 5). SEQ ID NOs: 235 and 236 were used as scrambled controls.
(§14) The data in Table 4 are presented as percentage down-regulation of mRNA relative to mock transfected cells at 25 nM. Lower-case letters represent DNA monomers, bold, upper-case letters represent β-D-oxy-LNA monomers. All cytosines in LNA monomers are 5-methylcytosines. Subscript “s” represents a phosphorothioate linkage.

human HER2 mRNA = assay: Down-regulation of HER2 mRNA in transfected 15PC3 cells, real-time PCR; type: cell-based; details: 25 nM
Experimental: as §7, §8, §9, §10, §6, §11, §12, §13, §14

Substance: CSGSCSASgSaStStSaSgSaSaSASCSCSt (l[5mC]*lG*l[5mC]*lA*dG*dA*dT*dT*dA*dG*dA*dA*lA*l[5mC]*l[5mC]*dT) [SEQ ID NO: 236, scrambled oligomer, negative control, reference compound]
- HER3 mRNA Liver (Mouse HER3 mRNA; 22.9 mg/kg): 81.4 ± 6.5 % of Sal ctrl
- HER3 mRNA Liver (Mouse HER3 mRNA; 30 mg/kg): 87.6 ± 19 % of Sal ctrl
- HER3 mRNA Liver (Mouse HER3 mRNA; 60 mg/kg): 86.5 ± 9.9 % of Sal ctrl
- HER3 mRNA Liver (Mouse HER3 mRNA; 76.3 mg/kg): 78 ± 17 % of Sal ctrl
- HER3 mRNA Tumor (human HER3 mRNA [1]; 22.9 mg/kg): 119.3 ± 24.9%
- HER3 mRNA Tumor (human HER3 mRNA [1]; 30 mg/kg): 101.2 ± 21.1%
- HER3 mRNA Tumor (human HER3 mRNA [1]; 60 mg/kg): 95.5 ± 12.7%
- HER3 mRNA Tumor (human HER3 mRNA [1]; 76.3 mg/kg): 100 ± 10.5%
- Tumor HER3 mRNA relative to saline treated controls (HER3 mRNA [2]; 76.3 x 4 mg/kg i.v.): 106 ± 6.6%
- Tumor Hif1A mRNA relative to saline treated controls (HIF-1 alpha mRNA; 76.3 x 4 mg/kg i.v.): 101 ± 13.8%
- Liver HER3 mRNA relative to saline treated controls (HER3 mRNA [3]; 76.3 x 4 mg/kg i.v.): 115.9 ± 26.3%
- HER3 Liver (HER3 mRNA [3]; A549 xenograft mice, 35 mg/kg, q4d x 3, i.v.): 97.5 ± 21.2 % saline control
- HER3 Tumor (HER3 mRNA [4]): 87.6 ± 11.9 % saline control

Substance: CSASTScSaScStScStSgSgStSgSTSGST (l[5mC]*lA*lT*dC*dA*dC*dT*dC*dT*dG*dG*dT*dG*lT*lG*lT; antisense) [SEQ ID NO: 195]
- HER3: percentage down-regulation of mRNA relative to mock transfected cells (human HER3 mRNA [5]): 64.4%*

Substance: GSCSTScScSaSgSaScSaStScSaSCSTSC (antisense lG*l[5mC]*lT*dC*dC*dA*dG*dA*dC*dA*dT*dC*dA*l[5mC]*lT*l[5mC]) [SEQ ID NO: 169, β-D-oxy-LNA/DNA phosphorothioate gapmer antisense oligonucleotide targeting HER3]
- EGFR: percentage down-regulation of mRNA relative to mock transfected cells (human EGFR mRNA): 95.2%
- HER2: percentage down-regulation of mRNA relative to mock transfected cells (human HER2 mRNA): 75.8%
- HER3 mRNA Liver (Mouse HER3 mRNA; 11.3 mg/kg): 10.2 ± 5.5 % of Sal ctrl
- HER3 mRNA Liver (Mouse HER3 mRNA; 37.7 mg/kg): 20.7 ± 9.8 % of Sal ctrl
- HER3 mRNA Tumor (human HER3 mRNA [1]; 37.7 mg/kg): 77 ± 10%
- Tumor HER3 mRNA relative to saline treated controls (HER3 mRNA [2]; 37.7 x 4 mg/kg i.v.): 81.6 ± 12.7%
- Tumor Hif1A mRNA relative to saline treated controls (HIF-1 alpha mRNA; 37.7 x 4 mg/kg i.v.): 94.6 ± 19.6%
- Liver HER3 mRNA relative to saline treated controls (HER3 mRNA [3]; 37.7 x 4 mg/kg i.v.): 39 ± 4.6%
